The values below come from ChEMBL document CHEMBL1151094, “Benzenepropanoic acids containing chromanone or naphthalenone moieties are potent and orally active leukotriene B4 antagonists” (Bioorg Med Chem Lett, 1994).

Usually Ki stands for the dissociation constant of the complex between target and ligand, obtained from inhibition or displacement.

The first assay deals with T1, Leukotriene B4 receptor (Homo sapiens, UniProt Q9NPC1+Q15722). The experiment in a line: Inhibition of LTB4 -induced bronchoconstriction in guinea pigs following 0.1 mg/kg prior to challenge. More on the design: dose 0.1 mg/kg; scale not given: the % may be the effect or the level left. The format is functional, organism-based. The following applies: Cavia porcellus; target entry is the homologue from another species; at 0.1 mg/kg.
T1 sequence (Q15722 whole entry, looked up): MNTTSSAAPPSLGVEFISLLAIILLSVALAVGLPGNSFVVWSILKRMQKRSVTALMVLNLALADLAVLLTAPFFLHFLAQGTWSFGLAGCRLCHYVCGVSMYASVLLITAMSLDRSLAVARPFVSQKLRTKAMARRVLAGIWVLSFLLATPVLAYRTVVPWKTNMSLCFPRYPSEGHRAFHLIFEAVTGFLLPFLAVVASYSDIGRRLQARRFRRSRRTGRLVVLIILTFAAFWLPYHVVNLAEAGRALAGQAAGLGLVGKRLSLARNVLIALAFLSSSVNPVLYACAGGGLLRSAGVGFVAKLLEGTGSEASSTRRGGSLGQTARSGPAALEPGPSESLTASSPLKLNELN
T1 sequence (Q9NPC1 whole entry, looked up): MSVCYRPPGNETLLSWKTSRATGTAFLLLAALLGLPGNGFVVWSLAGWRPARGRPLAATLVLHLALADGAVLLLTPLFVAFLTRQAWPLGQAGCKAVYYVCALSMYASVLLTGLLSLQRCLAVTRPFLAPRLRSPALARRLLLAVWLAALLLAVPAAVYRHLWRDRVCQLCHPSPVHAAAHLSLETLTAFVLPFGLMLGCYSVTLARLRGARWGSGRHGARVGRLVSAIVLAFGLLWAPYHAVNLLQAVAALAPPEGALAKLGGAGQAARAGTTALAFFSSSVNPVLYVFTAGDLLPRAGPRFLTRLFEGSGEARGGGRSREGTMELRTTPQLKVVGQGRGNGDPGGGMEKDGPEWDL
As to `COc1ccc(/C=C/CCCCOc2cccc(OCCCCC(=O)O)c2CCC(=O)O)cc1`, the Control was 101%.
On to `CCCc1c(OCCCOc2ccc(C(C)=O)c(OC)c2CCC)ccc2c1OC(C(=O)O)CC2` (racemic), for which the Control came to 91%.
Still for that read-out and setting: under `COc1ccc(/C=C/CCCCOc2ccc(C(=O)c3cccc(C(=O)O)c3)cc2CCC(=O)O)cc1` stands 88%.
Take `COc1cc(C(=O)N(C(C)C)C(C)C)ccc1OCCCCCOc1ccc(C(=N)N)cc1.O=C(O)/C=C\C(=O)O` [MOXILUBANT MALEATE]: the Control was 80%.

The target in a further assay is T1, Leukotriene B4 receptor. The experiment in a line: Inhibition of leukotriene B4 (LTB4) binding to its receptor on intact human neutrophils.
Details: not given
Turning to `COc1ccc(/C=C/CCCCOc2ccc(C(=O)c3cccc(C(=O)O)c3)cc2CCC(=O)O)cc1`, the Ki turned out to be 11 nM.
`CCCc1c(OCCCCCOc2cc3c(cc2C(C)=O)CCC(C(=O)O)O3)ccc(C(C)=O)c1O` (racemic) [ABLUKAST] showed a Ki of 320 nM.
In turn, `COc1cc(C(=O)N(C(C)C)C(C)C)ccc1OCCCCCOc1ccc(C(=N)N)cc1.O=C(O)/C=C\C(=O)O` [MOXILUBANT MALEATE] returned a Ki of 1 nM.

For a further assay, the system named is Cavia porcellus. In words: Percent of control LTB4 -induced bronchoconstriction in guinea pigs before 20 hours pretreatment at 1.0 mg/kg. Type of assay: functional.
Details: not given
Take `CCCc1c(OCCCCCCc2cccc(OCCCCCCCC(=O)O)c2CCC(=O)O)ccc2c1OCCC2=O`: the Control was 27%.
The same measure, in the same setting: the same measure for `CCCc1c(OCCCOc2ccc(-c3cscn3)c(OC)c2CC2CC2)ccc2c1OC(C(=O)O)CC2` (configuration not stated): 36%; for `CCCc1c(OCCCCCCc2cccc(OCCCCC(=O)O)c2CCC(=O)O)ccc2c1OCCC2=O`: 26%; for `CCCc1c(OCCCCCCc2cccc(OCCCCCCC(=O)O)c2CCC(=O)O)ccc2c1OCCC2=O`: 73%.
On the same count and under the same terms, the same measure for `CC(C)(CCCCOc1cc(-c2ccccc2)cc(-c2ccccc2)n1)c1nnn[nH]1`: 15%.
As for `CCCc1c(OCCCCCCc2cccc(OCCCCCC(=O)O)c2CCC(=O)O)ccc2c1CCCC2=O`, the Control is 25%.
With `CCCc1c(OCCCCCCc2cccc(OCCCC(=O)O)c2CCC(=O)O)ccc2c1CCCC2=O`, the Control is listed as 19%.
For the molecule `CCCc1c(OCCCCCCc2cccc(OCCCC(=O)O)c2CCC(=O)O)ccc2c1OCCC2=O`, the Control is reported as 20%.
For the molecule `CCCc1c(OCCCCCCc2cccc(OCCCCCCCCC(=O)O)c2CCC(=O)O)ccc2c1OCCC2=O`, the Control was 24%.
Turning to `CCCc1c(OCCCCCCc2ccc(OCCCC(=O)O)cc2CCC(=O)O)ccc2c1OCCC2=O`, the Control is 45%.
